Results taken from patent US8927246B2, “Method to increase the production of extracellular polymeric substances (EPS) in a Acidithiobacillus ferrooxidans culture by the inhibition of enzymes of tricarboxilic acid cycle” (Universidad de Chile, priority 2010, dated 2015).

Key:
[1] = system: Acidithiobacillus ferrooxidans strain Wenelen; assay: Batch culture of A. ferrooxidans Wenelen with FIC versus control: biomass and EPS production; type: cell-based; settings: for [EPS] ajusted: fitted curve
Description: To compare biomass and EPS production in a Acidithiobacillus ferrooxidans, a culture with FIC and a control one, without FIC, were conducted.
Both cultures were carried in 1 L of a 9K medium described in Table 2, with the addition of 30 g/L of ferrous sulfate, with pH set at 1.8, agitation of 250 rpm and air flux of 1 VVM.
In both cultures, the same initial biomass concentration of 1*10^7 cell/mL was inoculated. In sample 1, 80 μM of FIC was added. Cultures were kept for 288 hours and EPS and biomass concentration was periodically measured. Afterwards, specific productivity of EPS was calculated.

Aconitase (EC 4.2.1.3) = settings: cited from earlier work
[2] = 80 μM FIC, from hours 48 to 120

fluoroisocitrate [FIC]
amount of EPS per cell (pg EPS/cell) relative to control ([1]; 80 μM FIC, 192 hours): 18 times
EPS yield (pg EPS/cell) relative to control sample ([1]; 80 μM FIC, at 120 hours of culture): 2 times
biomass relative to control sample ([1]; 80 μM FIC, between 120 and 288 hours): lower by one magnitude order
difference in growth rate or EPS production versus control sample ([1]; 80 μM FIC, first 48 hours): no significant differences
EPS production [1, 2]: strong increase
biomass [1, 2]: remains practically constant
EPS ([1]; 80 μM FIC, time 0.0001 hours): 28 mg/L
cel/ml (biomass concentration) ([1]; 80 μM FIC, time 0.0001 hours): 4.69E+06 cel/ml
pg EPS/cel ([1]; 80 μM FIC, time 0.0001 hours): 5.97 pg EPS/cel
[EPS] ajusted ([1]; 80 μM FIC, time 0.0001 hours): 28.00 mg/L
EPS ([1]; 80 μM FIC, time 24 hours): 33.5 mg/L
cel/ml (biomass concentration) ([1]; 80 μM FIC, time 24 hours): 7.81E+06 cel/ml
pg EPS/cel ([1]; 80 μM FIC, time 24 hours): 4.29 pg EPS/cel
[EPS] ajusted ([1]; 80 μM FIC, time 24 hours): 36.49 mg/L
EPS ([1]; 80 μM FIC, time 48 hours): 74 mg/L
cel/ml (biomass concentration) ([1]; 80 μM FIC, time 48 hours): 6.66E+07 cel/ml
pg EPS/cel ([1]; 80 μM FIC, time 48 hours): 1.11 pg EPS/cel
[EPS] ajusted ([1]; 80 μM FIC, time 48 hours): 109.28 mg/L
EPS ([1]; 80 μM FIC, time 120 hours): 341 mg/L
cel/ml (biomass concentration) ([1]; 80 μM FIC, time 120 hours): 7.69E+07 cel/ml
pg EPS/cel ([1]; 80 μM FIC, time 120 hours): 4.44 pg EPS/cel
[EPS] ajusted ([1]; 80 μM FIC, time 120 hours): 306.36 mg/L
EPS ([1]; 80 μM FIC, time 144 hours): 350 mg/L
cel/ml (biomass concentration) ([1]; 80 μM FIC, time 144 hours): 4.16E+07 cel/ml
pg EPS/cel ([1]; 80 μM FIC, time 144 hours): 8.42 pg EPS/cel
[EPS] ajusted ([1]; 80 μM FIC, time 144 hours): 318.74 mg/L
EPS ([1]; 80 μM FIC, time 168 hours): 372.5 mg/L
cel/ml (biomass concentration) ([1]; 80 μM FIC, time 168 hours): 3.41E+07 cel/ml
pg EPS/cel ([1]; 80 μM FIC, time 168 hours): 10.94 pg EPS/cel
[EPS] ajusted ([1]; 80 μM FIC, time 168 hours): 324.73 mg/L
EPS ([1]; 80 μM FIC, time 192 hours): 348.5 mg/L
cel/ml (biomass concentration) ([1]; 80 μM FIC, time 192 hours): 1.41E+07 cel/ml
pg EPS/cel ([1]; 80 μM FIC, time 192 hours): 24.78 pg EPS/cel
[EPS] ajusted ([1]; 80 μM FIC, time 192 hours): 327.88 mg/L
EPS ([1]; 80 μM FIC, time 216 hours): 315 mg/L
cel/ml (biomass concentration) ([1]; 80 μM FIC, time 216 hours): 1.38E+07 cel/ml
pg EPS/cel ([1]; 80 μM FIC, time 216 hours): 22.91 pg EPS/cel
[EPS] ajusted ([1]; 80 μM FIC, time 216 hours): 329.65 mg/L
EPS ([1]; 80 μM FIC, time 288 hours): 305 mg/L
cel/ml (biomass concentration) ([1]; 80 μM FIC, time 288 hours): 1.94E+07 cel/ml
pg EPS/cel ([1]; 80 μM FIC, time 288 hours): 15.74 pg EPS/cel
[EPS] ajusted ([1]; 80 μM FIC, time 288 hours): 331.83 mg/L
effect on EPS and biomass production in culture ([1]; A. ferroxidans culture): enhanced EPS production in detriment of biomass production
EPS specific productivity versus control ([1]; FIC cultures, after the first 30 hours): significant increase
increase in EPS specific productivity versus control ([1]; FIC cultures, around the 50 hours of culture, exponential growth phase): ~30%
inhibition of aconitase (Aconitase (EC 4.2.1.3)): specifically inhibited
